Among the data in patent US8426420B2, “Heterocyclic pyrazole-carboxamidesas P2Y12 antagonists” (Sanofi, priority 2007, dated 2013) are IC50 values, retold here.

By pIC50 is commonly meant the IC50 on a negative log10 scale, so that one unit is a factor of ten. Low values mean a high IC50, high ones a low IC50.

pIC50: −log10 of the molar value.

The subject of the first assay is human platelet rich plasma. Put plainly: Inhibition of human platelet aggregation, 96-well assay. In kind it is cell-based. Conditions: ADP-induced aggregation, human platelet rich plasma, 96-well plates, AUC of absorbance over 20 minutes. On the procedure: Inhibition of Human Platelet Aggregation
Alternatively to a binding assay which measures a compound's ability to bind to the P2Y12 receptor, the effect on cellular function was also determined. This ability of the compound was evaluated in two platelet aggregation assays: in 96-well plates and with the “Born”-method using single cuvettes.
Whole blood was collected from healthy volunteers using 20 ml syringes containing 2 ml of ACD-A Aqua-Citrat-Dextrose-A, Fresenius). The anticoagulated whole blood was transferred into 15 ml polypropylene conical tubes (10 ml per tube). The tubes were centrifuged for 15 minutes at 150×g at RT without using the centrifuge brake. This procedure leads to a pellet of cellular components and a supernatant of platelet rich plasma (PRP). The PRP layer was collected from each tube and pooled for each donor. To avoid carry over of cellular components following centrifugation, approximately 5 ml of PRP was left in the tube. The platelet concentration was determined using a Coulter Counter.
The 15 ml tubes containing the pellet of cellular components were centrifuged again for 10 minutes at 1940×g. This pelleted out most particulate blood constituents remaining, leaving a layer of Platelet Poor Plasma (PPP). The PPP was collected for each donor. The PRP layer, previously set aside, was diluted with PPP to a final concentration of approximately 3×E8 platelets/ml with the PPP.
The human platelet aggregation assay is performed in 96-well plates using a microtiter plate reader (SpectraMax Plus 384 with SoftMax Pro software from Molecular Devices). In the plate 15 μl of test compound at 10× final concentration in NaCl is mixed with 120 μl fresh PRP and incubated for 5 minutes. Following that incubation period, 15 μl of 40 μM ADP is added to the reaction mix. This addition of ADP is sufficient to induce aggregation in the absence of an inhibitor. The plates are then transferred to the microplate reader and aggregation is measured over 20 minutes. The instrument settings include:
Absorbance at 650 nm, run time 20 minutes with readings in 1-minute intervals and 50 seconds shaking between readings all performed at 37° C.
`CCOC(=O)N1CCN(C(=O)[C@H](CCC(=O)O)NC(=O)c2cc(OCC(=O)N3CCC[C@H]3C(=O)NC)n(-c3ccccc3)n2)CC1` [Example 7, 4-{(S)-4-Carboxy-2-[(5-{2-[(S)-2-(2-methylcarbamoyl)-pyrrolidin-1-yl]-2-oxo-ethoxy}-1-phenyl-1H-pyrazole-3-carbonyl)-amino]-butyryl}-piperazine-1-carboxylic acid ethyl ester] showed a pIC50 of 5.84. Turning to `CCOC(=O)N1CCN(C(=O)[C@H](CCC(=O)O)NC(=O)c2cc(OCC(=O)N3CC(F)(F)C[C@H]3C(=O)NCC3CC3)n(-c3ccccc3)n2)CC1` [Example 166, 4-[(S)-4-Carboxy-2-({5-[2-((S)-2-(cycloproylmethyl-carbamoyl)-4,4-difluoro-pyrrolidin-1-yl)-2-oxo-ethoxy]-1-phenyl-1H-pyrazole-3-carbonyl}-amino)-butyryl]-piperazine-1-carboxylic acid ethyl ester], the pIC50 was 7.10.

Staying with this assay, now noted: Homo sapiens, Platelet, 20 min.
`CCOC(=O)N1CCN(C(=O)[C@H](CC(=O)O)NC(=O)c2cc(OCC(=O)N3CCC[C@H]3C(=O)NCCF)n(-c3ccccc3)n2)CC1` [Example 59, 4-{(S)-3-Carboxy-2-[(5-{2-[(S)-2-(2-fluoro-ethylcarbamoyl)-pyrrolidin-1-yl]-2-oxo-ethoxy}-1-phenyl-1H-pyrazole-3-carbonyl)-amino]-propionyl}-piperazine-1-carboxylic acid ethyl ester] had a pIC50 of 6.20. The same measure, in the same setting: then `CCOC(=O)N1CCN(C(=O)[C@H](CCC(=O)OCCCOC)NC(=O)c2cc(OCC(=O)N3CCC[C@H]3C(=O)NC3CCC3)n(-c3ccccc3)n2)CC1` [Example 200, 4-[(S)-2-({5-[2-((S)-2-Cyclobutylcarbamoyl-pyrrolidin-1-yl)-2-oxo-ethoxy]-1-phenyl-1H-pyrazole-3-carbonyl}-amino)-4-(3-methoxy-propoxycarbonyl)-butyryl]-piperazine-1-carboxylic acid ethyl ester], with 6.38; and `CCOC(=O)N1CCN(C(=O)[C@H](CCC(=O)O)NC(=O)c2cc(O[C@H](C)C(=O)N3CCC[C@H]3C(=O)N3CCCC3)n(-c3ccccc3)n2)CC1` [Example 64, 4-{(S)-4-Carboxy-2-[(5-{(R)-1-methyl-2-oxo-2-[(S)-2-(pyrrolidine-1-carbonyl)-pyrrolidin-1-yl]-ethoxy}-1-phenyl-1H-pyrazole-3-carbonyl)-amino]-butyryl}-piperazine-1-carboxylic acid ethyl ester], with 6.72. For `O=C(NCC(=O)N1CCN(C(=O)OCc2ccccc2)CC1)c1cc(OCC(=O)N2CCC[C@H]2C(=O)NC2CCC2)n(-c2ccccc2)n1` [Example 275, 4-[2-({5-[2-((S)-2-Cyclobutylcarbamoyl-pyrrolidin-1-yl)-2-oxo-ethoxy]-1-phenyl-1H-pyrazole-3-carbonyl}-amino)-acetyl]-piperazine-1-carboxylic acid benzyl ester], the negative logarithm of the IC50 (pIC50) is 6.31. Take `CCOC(=O)N1CCN(C(=O)[C@H](CCC(=O)OCC2CCOC2)NC(=O)c2cc(OCC(=O)N3CCC[C@H]3C(=O)NC3CCC3)n(-c3ccccc3)n2)CC1` (stereo partly drawn) [Example 202, 4-[(S)-2-({5-[2-((S)-2-Cyclobutylcarbamoyl-pyrrolidin-1-yl)-2-oxo-ethoxy]-1-phenyl-1H-pyrazole-3-carbonyl}-amino)-4-(tetrahydro-furan-3-ylmethoxycarbonyl)-butyryl]piperazine-1-carboxylic acid ethyl ester]: the pIC50 is 6.08.

Turning to `CCCOC(=O)N1CCN(C(=O)[C@H](CCC(=O)OC)NC(=O)c2cc(OCC(=O)N3CCC[C@H]3C(=O)NC3CCC3)n(-c3ccccc3)n2)CC1` [Example 190, 4-[(S)-2-({5-[2-((S)-2-Cyclobutylcarbamoyl-pyrrolidin-1-yl)-2-oxo-ethoxy]-1-phenyl-1H-pyrazole-3-carbonyl}-amino)-4-methoxycarbonyl-butyryl]-piperazine-1-carboxylic acid propyl ester], the pIC50 was 6.74. For `CCOC(=O)N1CCN(C(=O)[C@H](CCC(=O)OCCN2CCOCC2)NC(=O)c2cc(OCC(=O)N3CCC[C@H]3C(=O)NC3CCC3)n(-c3ccccc3)n2)CC1` [Example 201, 4-[(S)-2-({5-[2-((S)-2-Cyclobutylcarbamoyl-pyrrolidin-1-yl)-2-oxo-ethoxy]-1-phenyl-1H-pyrazole-3-carbonyl}-amino)-4-(2-morpholin-4-yl-ethoxycarbonyl)-butyryl]-piperazine-1-carboxylic acid ethyl ester], the pIC50 is 6.24. Regarding `O=C(NCC(=O)N1CCN(C(=O)[C@@H]2C[C@H]2c2ccccc2)CC1)c1cc(OCC(=O)N2CCC[C@H]2C(=O)NC2CCC2)n(-c2ccccc2)n1` [Example 246, 5-[2-((S)-2-Cyclobutylcarbamoyl-pyrrolidin-1-yl)-2-oxo-ethoxy]-1-phenyl-1H-pyrazole-3-carboxylic acid {2-oxo-2-[4-((1R,2R)-2-phenyl-cyclopropanecarbonyl)-piperazin-1-yl]-ethyl}-amide], the pIC50 was 6.25. In turn, `CCOCCOC(=O)N1CCN(C(=O)CNC(=O)c2cc(OCC(=O)N3CCC[C@H]3C(=O)NC3CCC3)n(-c3ccccc3)n2)CC1` [Example 257, 4-[2-({5-[2-((S)-2-Cyclobutylcarbamoyl-pyrrolidin-1-yl)-2-oxo-ethoxy]-1-phenyl-1H-pyrazole-3-carbonyl}-amino)-acetyl]-piperazine-1-carboxylic acid 2-ethoxy-ethyl ester] gave a negative-log IC50 (pIC50) of 6.62. The compound `CCNC(=O)[C@@H]1CCCN1C(=O)COc1cc(C(=O)N[C@@H](CCC(=O)O)C(=O)N2CCN(C(=O)OCC)CC2)nn1-c1ccccc1` [Example 8, 4-{(S)-4-Carboxy-2-[(5-{2-[(S)-2-ethylcarbamoyl-pyrrolidin-1-yl]-2-oxo-ethoxy}-1-phenyl-1H-pyrazole-3-carbonyl)-amino]-butyryl}-piperazine-1-carboxylic acid ethyl ester] gave a pIC50 of 6.33.

As to `O=C(O)CC[C@H](NC(=O)c1cc(OCC(=O)N2CCC[C@H]2C(=O)NC2CCC2)n(-c2ccccc2)n1)C(=O)N1CCN(C(=O)c2ccccc2)CC1` [Example 104, (S)-5-(4-Benzoyl-piperazin-1-yl)-4-({5-[2-((S)-2-cyclobutylcarbamoyl-pyrrolidin-1-yl)-2-oxo-ethoxy]-1-phenyl-1H-pyrazole-3-carbonyl}-amino)-5-oxo-pentanoic acid], the pIC50 is 5.91. The compound `CCOC(=O)N1CCN(C(=O)[C@H](CCC(=O)O)NC(=O)c2cc(O[C@@H](C)C(=O)N3CCC[C@H]3C(=O)NCC3CC3)n(-c3ccccc3)n2)CC1` [Example 68, 4-[(S)-4-Carboxy-2-({5-[(S)-2-((S)-2-cyclopropylmethylcarbamoyl-pyrrolidin-1-yl)-1-methyl-2-oxo-ethoxy]-1-phenyl-1H-pyrazole-3-carbonyl}-amino)-butyryl]-piperazine-1-carboxylic acid ethyl ester] showed a pIC50 of 7.15. On the same count and under the same terms, then `CCOC(=O)N1CCN(C(=O)[C@H](CCC(=O)OCCC(C)OC)NC(=O)c2cc(OCC(=O)N3CCC[C@H]3C(=O)NC3CCC3)n(-c3ccccc3)n2)CC1` (stereo partly drawn) [Example 205, 4-[(S)-2-({5-[2-((S)-2-Cyclobutylcarbamoyl-pyrrolidin-1-yl)-2-oxo-ethoxy]-1-phenyl-1H-pyrazole-3-carbonyl}-amino)-4-(3-methoxy-butoxycarbonyl)-butyryl]-piperazine-1-carboxylic acid ethyl ester], with 6.34. On to `CCOC(=O)N1CCN(C(=O)[C@H](CCC(=O)O)NC(=O)c2cc(OCC(=O)N3CCC[C@H]3C(=O)N3CCCC3)n(-c3ccccc3)n2)CC1` [Example 17, 4-{(S)-4-Carboxy-2-[(5-{2-oxo-2-[(S)-2-(pyrrolidine-1-carbonyl)-pyrrolidin-1-yl]-ethoxy}-1-phenyl-1H-pyrazole-3-carbonyl)-amino]-butyryl}-piperazine-1-carboxylic acid ethyl ester], for which the pIC50 was 6.22. Still for that read-out and setting: the value for `CCOC(=O)N1CCN(C(=O)[C@H](CCC(=O)OCC2(C)COC2)NC(=O)c2cc(OCC(=O)N3CCC[C@H]3C(=O)NC3CCC3)n(-c3ccccc3)n2)CC1` [Example 203, 4-[(S)-2-({5-[2-((S)-2-Cyclobutylcarbamoyl-pyrrolidin-1-yl)-2-oxo-ethoxy]-1-phenyl-1H-pyrazole-3-carbonyl}-amino)-4-(3-methyl-oxetan-3-ylmethoxycarbonyl)-butyryl]-piperazine-1-carboxylic acid ethyl ester] was 6.31. On the same count and under the same terms, the value for `CCOC(=O)N1CCN(C(=O)[C@H](CCC(=O)O)NC(=O)c2cc(OCC(=O)N3CCC[C@H]3C(=O)N3CCC(F)(F)CC3)n(-c3ccccc3)n2)CC1` [Example 19, 4-{(S)-4-Carboxy-2-[(5-{2-[(S)-2-(4,4-difluoro-piperidine-1-carbonyl)-pyrrolidin-1-yl]-2-oxo-ethoxy}-1-phenyl-1H-pyrazole-3-carbonyl)-amino]-butyryl}-piperazine-1-carboxylic acid ethyl ester] was 6.68.
